Patent US8399676B2, “Piperidine derivatives” (Hoffman-La Roche Inc., priority 2009, dated 2013)
Where a name gives a salt, the structure may show the parent alone.

Each molecule was assayed against T1, human HSL (Homo sapiens, UniProt Q05469) (assay: Human Hormone-Sensitive Lipase (HSL) enzyme inhibition assay (colorimetric, DMPT substrate)). Conditions: read-out: HSL hum IC50.
T1 construct: generate a full length human HSL ORF with a 3′-His6 tag; His6 (C); made in house; host or cells: High 5 insect cells (baculovirus, pFast-BAC)
T1 sequence (Q05469 1-1076): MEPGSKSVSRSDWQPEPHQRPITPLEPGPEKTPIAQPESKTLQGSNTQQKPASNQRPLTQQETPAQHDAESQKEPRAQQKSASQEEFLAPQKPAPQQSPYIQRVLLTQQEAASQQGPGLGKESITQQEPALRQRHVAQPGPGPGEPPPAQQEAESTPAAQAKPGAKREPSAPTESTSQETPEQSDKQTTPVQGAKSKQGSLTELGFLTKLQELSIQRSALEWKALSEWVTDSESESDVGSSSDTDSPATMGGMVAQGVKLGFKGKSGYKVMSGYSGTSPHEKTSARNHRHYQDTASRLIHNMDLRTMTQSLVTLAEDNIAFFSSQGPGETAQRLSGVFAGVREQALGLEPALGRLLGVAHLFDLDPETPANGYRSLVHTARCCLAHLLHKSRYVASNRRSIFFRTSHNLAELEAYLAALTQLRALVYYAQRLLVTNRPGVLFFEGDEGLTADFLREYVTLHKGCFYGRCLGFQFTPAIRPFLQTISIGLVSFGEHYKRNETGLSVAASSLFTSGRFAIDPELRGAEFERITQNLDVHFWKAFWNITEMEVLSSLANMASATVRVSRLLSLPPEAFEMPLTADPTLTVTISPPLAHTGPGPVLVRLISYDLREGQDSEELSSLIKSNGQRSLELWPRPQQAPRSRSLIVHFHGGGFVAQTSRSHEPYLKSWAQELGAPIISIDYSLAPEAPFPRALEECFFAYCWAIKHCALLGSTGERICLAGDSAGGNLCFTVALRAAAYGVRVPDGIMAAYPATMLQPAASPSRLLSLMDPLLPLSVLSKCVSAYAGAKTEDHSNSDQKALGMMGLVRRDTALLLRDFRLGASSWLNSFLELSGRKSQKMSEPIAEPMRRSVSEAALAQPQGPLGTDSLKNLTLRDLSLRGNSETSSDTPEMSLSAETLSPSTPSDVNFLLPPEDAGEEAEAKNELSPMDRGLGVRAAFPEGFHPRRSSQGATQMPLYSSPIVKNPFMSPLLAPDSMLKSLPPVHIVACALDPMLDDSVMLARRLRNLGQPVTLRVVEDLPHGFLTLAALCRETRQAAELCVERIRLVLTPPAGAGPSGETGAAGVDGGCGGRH
Type: biochemical
Protocol: Production of Human Full Length Hormone Sensitive Lipase-His^6
1) Cloning: cDNA was prepared from commercial human brain polyA+ RNA and used as a template in overlapping PCR to generate a full length human HSL ORF with a 3′-His6 tag. This full length insert was cloned into the pFast-BAC vector and the DNA-sequence of several single clones was verified. DNA from a correct full length clone with the 3′His6 tag was used to transform the E. coli strain DH10BAC. Resulting bacmid DNA was used to generate a titered baculovirus stock for protein generation. The sequence of the encoded HSL conforms to Swissprot entry Q05469, with the additional C-terminal His6-tag.
2) Protein purification: Culture: 5.5 L, High 5 cells expressing human full length HSL-His^6, 48 hr., containing 25 μM E-64. Cell count: […], 90% viable.
Cells were thawed. On ice, cells were suspended in Base Buffer containing 10% glycerol, 25 mM Tris-Cl, 300 mM NaCl, 10 mM imidazole, 10 mM 2-mercaptoethanol, 2 μg pepstatin/ml, 2 μg leupeptin/ml, 2 μg antipain/ml, pH 8.0 at 4° C. in a final volume of 475 ml with 3.75×10^7 cells/ml. […] was done at 3×30 sec., Lubrol PX was added to 0.2% final concentration followed by stirring for 15 min. at 4° C. and centrifugation at 25 k×g, 60 min., 4° C. Soluble proteins were mixed with 60 ml of pre-washed and equilibrated Ni-NTA Agarose (Qiagen 30210) followed by tumbling end-over-end, 45 min., 4° C., centrifugation 1000 rpm 5 min and letting resin settle 5 min. Supernatant was removed, the resin washed in the centrifuge vessel using 5 volumes of Base Buffer containing 0.2% Lubrol PX. Centrifugation was done again, then the supernatant discarded. The resin was poured onto a 0.8 μm membrane in a disposable filter unit (Nalge 450-0080), and washed with 5 volumes of Base Buffer containing 0.2% Lubrol PX. It was then washed with 30 volumes of Base Buffer containing 60 mM imidazole pH 7.5 at 4° C. The protein was eluted with 5 volumes of 25 mM Tris-Cl, 300 mM NaCl, 200 mM imidazole, 10 mM 2-mercaptoethanol, pH 7.5 at 4° C. by tumbling resin with buffer end-over-end, 30 min., 4° C. The resin was captured on a 0.2 μm membrane disposable filter unit (Millipore SCGP U02 RE) and the elute collected in the reservoir. The elute was concentrated using a 30 k MWCO centrifugal filter device (Sartorius Vivascience Vivacell 100, VC1022), to 20 ml. It was then dialyzed overnight at 4° C., two times against 2 L of 10% glycerol, 25 mM Tris-Cl, 300 mM NaCl, 0.2 mM EDTA, 0.2 mM DTT, pH 7.5 at 4° C. The protein was filtered using a 0.22 μm disposable filter unit (Millipore SCGP00525). The protein concentration was calculated from absorbance at 280 nm, using 280=0.67 cm-1 mg-1. Yield was 235 mg, total. The protein was stored at −80° C. Human Hormone-Sensitive Lipase (HSL) enzyme inhibition assay:
HSL enzyme activity was measured by a colorimetric assay using 2,3-dimercapto-1-propanol tributyrate (Aldrich, St. Louis, Mo.) as a substrate. Typically, 1.5 mM 2,3-dimercapto-1-propanol tributyrate (DMPT) in 100 mM MOPS, pH 7.2, 0.2 mg/ml fatty acid-free BSA was prepared by sonication at 4° C. to homogenous suspension. Test compounds (2 mM stock in DMSO) were diluted 3 fold in series in DMSO. Compound solutions were diluted 24 fold in 1.5 mM DMPT containing solution and 18 ul per well was added to 384-well microplates (Corning Costar). Twelve microliters per well of human HSL (15 ug/ml) was added and the reaction mixture was incubated at 37° C. for 20 minutes. Six microliters of 12 mM dithio-bis-(2-nitrobenzoic acid) (DTNB) in DMSO plus 1.2% SDS and 0.6% Triton X-100 were added and the mixture was incubated at room temperature for 15 minutes. Product production was monitored by reading absorbance at 405 nm on an Envision Reader (PerkinElmer Life and Analytical Sciences, Shelton, Conn.).

Structure (SMILES)	IC50 [nM]
CC(C)(C)c1ccc(NC(=O)N2CCC(N)(C(=O)Nc3ccc(C(C)(C)C)cc3)CC2)cc1 [Example 90, 4-Amino-piperidine-1,4-dicarboxylic acid bis-[(4-tert-butyl-phenyl)-amide]; hydrochloride]	130
NC1(C(=O)Nc2ccc(OC(F)(F)F)cc2)CCN(S(=O)(=O)c2ccccc2Cl)CC1 [Example 103, 4-Amino-1-(2-chloro-benzenesulfonyl)-piperidine-4-carboxylic acid (4-trifluoromethoxy-phenyl)-amide]	30
O=C(Nc1ccc(OC(F)(F)F)cc1)C1(O)CCN(S(=O)(=O)c2ccccc2Cl)CC1 [Example 10, 1-(2-Chloro-benzenesulfonyl)-4-hydroxy-piperidine-4-carboxylic acid (4-trifluoromethoxy-phenyl)-amide]	120
CC(C)c1ccc(NC(=O)C2(N)CCN(Cc3ccccc3Cl)CC2)cc1 [Example 110, 4-Amino-1-(2-chloro-benzyl)-piperidine-4-carboxylic acid (4-isopropyl-phenyl)-amide; hydrochloride]	80
CC(C)c1ccc(NC(=O)C2(N)CCN(S(=O)(=O)c3ccc(C(C)C)cc3)CC2)cc1 [Example 83, 4-Amino-1-(4-isopropyl-benzenesulfonyl)-piperidine-4-carboxylic acid (4-isopropyl-phenyl)-amide; hydrochloride]	230
CC(C)c1ccc(NC(=O)C2(O)CCN(C(=O)Nc3ccc(C(F)(F)F)cc3)CC2)cc1 [Example 6, 4-Hydroxy-piperidine-1,4-dicarboxylic acid 4-[(4-isopropyl-phenyl)-amide] 1-[(4-trifluoromethyl-phenyl)-amide]]	210
CC(C)CS(=O)(=O)N1CCC(O)(C(=O)Nc2ccc(OC(F)(F)F)cc2)CC1 [Example 54, 4-Hydroxy-1-(2-methyl-propane-1-sulfonyl)-piperidine-4-carboxylic acid (4-trifluoromethoxy-phenyl)-amide]	660
O=C(Nc1ccc(OC(F)(F)F)cc1)C1(O)CCN(S(=O)(=O)c2ccccc2F)CC1 [Example 61, 1-(2-Fluoro-benzenesulfonyl)-4-hydroxy-piperidine-4-carboxylic acid (4-trifluoromethoxy-phenyl)-amide]	100
CCN(C(=O)C1(O)CCN(S(=O)(=O)c2ccccc2F)CC1)c1ccc(OC(F)(F)F)cc1 [Example 75, 1-(2-Fluoro-benzenesulfonyl)-4-hydroxy-piperidine-4-carboxylic acid ethyl-(4-trifluoromethoxy-phenyl)-amide]	750
O=C(Nc1ccc(OC(F)(F)F)cc1)C1(O)CCN(S(=O)(=O)c2cccs2)CC1 [Example 57, 4-Hydroxy-1-(thiophene-2-sulfonyl)-piperidine-4-carboxylic acid (4-trifluoromethoxy-phenyl)-amide]	330
CC(C)c1ccc(NC(=O)C2(N)CCN(Cc3ccccc3)CC2)cc1 [Example 122, 4-Amino-1-benzyl-piperidine-4-carboxylic acid (4-isopropyl-phenyl)-amide]	130
CC(C)(C)c1ccc(NC(=O)C2(O)CCN(Cc3ccccc3OC(F)(F)F)CC2)cc1 [Example 48, 4-Hydroxy-1-(2-trifluoromethoxy-benzyl)-piperidine-4-carboxylic acid (4-tert-butyl-phenyl)-amide]	110
COc1ccc(S(=O)(=O)N2CCC(O)(C(=O)Nc3ccc(C(C)C)cc3)CC2)cc1 [Example 8, 4-Hydroxy-1-(4-methoxy-benzenesulfonyl)-piperidine-4-carboxylic acid (4-isopropyl-phenyl)-amide]	200
CC(C)c1ccc(NC(=O)C2(O)CCN(S(=O)(=O)c3ccccc3Cl)CC2)cc1 [Example 7, 1-(2-Chloro-benzenesulfonyl)-4-hydroxy-piperidine-4-carboxylic acid (4-isopropyl-phenyl)-amide]	90
CC(C)(C)c1ccc(NC(=O)C2(O)CCN(C(=O)c3cc(F)ccc3F)CC2)cc1 [Example 43, 1-(2,5-Difluoro-benzoyl)-4-hydroxy-piperidine-4-carboxylic acid (4-tert-butyl-phenyl)-amide]	640
CCN(C(=O)C1(O)CCN(S(=O)(=O)c2ccccc2C)CC1)c1ccc(OC(F)(F)F)cc1 [Example 74, 4-Hydroxy-1-(toluene-2-sulfonyl)-piperidine-4-carboxylic acid ethyl-(4-trifluoromethoxy-phenyl)-amide]	880
CCc1ccc(NC(=O)C2(N)CCN(Cc3ccccc3C(F)(F)F)CC2)cc1 [Example 157, 4-Amino-1-(2-trifluoromethyl-benzyl)-piperidine-4-carboxylic acid (4-ethyl-phenyl)-amide]	180
CC(C)c1ccc(NC(=O)C2(N)CCN(C(=O)Nc3ccc(F)cc3)CC2)cc1 [Example 106, 4-Amino-piperidine-1,4-dicarboxylic acid 1-[(4-fluoro-phenyl)-amide]-4-[(4-isopropyl-phenyl)-amide]; hydrochloride]	210
CCc1ccc(NC(=O)C2(N)CCN(Cc3ccccc3C)CC2)cc1 [Example 152, 4-Amino-1-(2-methyl-benzyl)-piperidine-4-carboxylic acid (4-ethyl-phenyl)-amide]	120
CC(C)c1ccc(NC(=O)C2(O)CCN(Cc3ccc(C(F)(F)F)cc3)CC2)cc1 [Example 9, 4-Hydroxy-1-(4-trifluoromethyl-benzyl)-piperidine-4-carboxylic acid (4-isopropyl-phenyl)-amide]	450
CCc1ccc(NC(=O)C2(N)CCN(S(=O)(=O)c3ccccc3C)CC2)cc1 [Example 135, 4-Amino-1-(toluene-2-sulfonyl)-piperidine-4-carboxylic acid (4-ethyl-phenyl)-amide]	80
